We go through 1 molecule from publication PMC12018195, “A conserved phosphorylation mechanism for regulating the interaction between the CMG replicative helicase and its forked DNA substrate” (The Journal of Biological Chemistry, 2025).

Common to all, as to experiment: radiometric kinase assay, SDS-PAGE
Holding throughout (type): biochemical

For assay [1], the target named is T1, human (Hs) Chk2 (Homo sapiens, UniProt O96017).
T1 construct: gene CHEK2
The following applies: phosphate donor, 300 μM ATP spiked with labelled compound; acceptor histone H1 / Cdc25 peptide; 10 mM Mg acetate, pH 7.6, 30 °C.

In assay [2] the target is T2, mouse (Mm) Chk2 (Mus musculus, UniProt Q9Z265).
T2 construct: gene Chek2
T2 sequence (Q9Z265 whole entry): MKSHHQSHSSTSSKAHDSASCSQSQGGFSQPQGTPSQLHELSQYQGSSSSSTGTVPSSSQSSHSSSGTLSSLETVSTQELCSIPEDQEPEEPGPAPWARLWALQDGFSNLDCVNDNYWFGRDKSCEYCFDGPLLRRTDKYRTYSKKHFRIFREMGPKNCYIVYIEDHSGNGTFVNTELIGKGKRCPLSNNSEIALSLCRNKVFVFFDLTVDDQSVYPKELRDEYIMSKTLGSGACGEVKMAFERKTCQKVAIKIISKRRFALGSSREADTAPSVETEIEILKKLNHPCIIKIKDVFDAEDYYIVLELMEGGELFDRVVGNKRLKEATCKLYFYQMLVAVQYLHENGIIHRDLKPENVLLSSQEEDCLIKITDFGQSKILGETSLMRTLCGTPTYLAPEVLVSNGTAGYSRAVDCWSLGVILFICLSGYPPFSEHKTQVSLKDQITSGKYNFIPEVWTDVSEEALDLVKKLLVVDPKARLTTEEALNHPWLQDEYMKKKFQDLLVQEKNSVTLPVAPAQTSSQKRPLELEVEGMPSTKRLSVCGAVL
The following applies: phosphate donor, 300 μM ATP spiked with labelled compound; acceptor histone H1 / Cdc25 peptide; 10 mM Mg acetate, pH 7.6, 30 °C.

The target in assay [3] is T3, human (Hs) Chk1 (Homo sapiens, UniProt O14757).
T3 construct: gene CHEK1
T3 sequence (O14757 1-476): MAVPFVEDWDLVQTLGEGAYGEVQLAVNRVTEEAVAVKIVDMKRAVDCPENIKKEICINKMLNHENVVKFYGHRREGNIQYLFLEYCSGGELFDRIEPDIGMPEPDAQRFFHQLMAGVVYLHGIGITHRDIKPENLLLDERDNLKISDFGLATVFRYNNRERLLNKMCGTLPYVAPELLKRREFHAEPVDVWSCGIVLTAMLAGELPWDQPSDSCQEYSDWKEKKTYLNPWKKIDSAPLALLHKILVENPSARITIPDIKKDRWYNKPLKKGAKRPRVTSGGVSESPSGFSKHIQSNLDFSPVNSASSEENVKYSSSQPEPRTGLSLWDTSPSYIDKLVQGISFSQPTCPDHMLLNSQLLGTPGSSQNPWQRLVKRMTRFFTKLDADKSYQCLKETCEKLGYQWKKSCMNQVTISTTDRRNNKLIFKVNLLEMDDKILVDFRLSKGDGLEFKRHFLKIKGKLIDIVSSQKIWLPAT
The following applies: phosphate donor, 300 μM ATP spiked with labelled compound; acceptor MCM2-7 / CMG / histone H1; 10 mM Mg acetate, pH 7.6, 30 °C.

Assay [4] concerns the target T4, Drosophila (Dm) Chk1 (Drosophila melanogaster, UniProt O61661).
T4 construct: gene grp
T4 sequence (O61661 1-512): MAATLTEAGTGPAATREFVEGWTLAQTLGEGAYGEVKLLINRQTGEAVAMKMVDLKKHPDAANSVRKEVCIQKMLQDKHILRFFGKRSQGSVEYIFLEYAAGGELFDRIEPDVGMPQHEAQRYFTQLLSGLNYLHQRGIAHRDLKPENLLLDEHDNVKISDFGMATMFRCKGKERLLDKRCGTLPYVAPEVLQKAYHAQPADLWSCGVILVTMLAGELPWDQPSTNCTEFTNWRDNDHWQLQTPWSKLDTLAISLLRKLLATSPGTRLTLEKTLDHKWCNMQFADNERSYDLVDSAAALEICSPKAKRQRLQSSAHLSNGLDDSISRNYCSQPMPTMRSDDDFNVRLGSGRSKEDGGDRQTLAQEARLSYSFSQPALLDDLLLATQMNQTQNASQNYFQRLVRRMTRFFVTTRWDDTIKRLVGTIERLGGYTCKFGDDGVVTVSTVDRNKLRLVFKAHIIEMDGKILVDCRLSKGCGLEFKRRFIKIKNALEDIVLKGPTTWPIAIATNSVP
Conditions: phosphate donor, 300 μM ATP spiked with labelled compound; acceptor MCM2-7 / CMG / histone H1; 10 mM Mg acetate, pH 7.6, 30 °C.

T1 sequence (O96017 whole entry): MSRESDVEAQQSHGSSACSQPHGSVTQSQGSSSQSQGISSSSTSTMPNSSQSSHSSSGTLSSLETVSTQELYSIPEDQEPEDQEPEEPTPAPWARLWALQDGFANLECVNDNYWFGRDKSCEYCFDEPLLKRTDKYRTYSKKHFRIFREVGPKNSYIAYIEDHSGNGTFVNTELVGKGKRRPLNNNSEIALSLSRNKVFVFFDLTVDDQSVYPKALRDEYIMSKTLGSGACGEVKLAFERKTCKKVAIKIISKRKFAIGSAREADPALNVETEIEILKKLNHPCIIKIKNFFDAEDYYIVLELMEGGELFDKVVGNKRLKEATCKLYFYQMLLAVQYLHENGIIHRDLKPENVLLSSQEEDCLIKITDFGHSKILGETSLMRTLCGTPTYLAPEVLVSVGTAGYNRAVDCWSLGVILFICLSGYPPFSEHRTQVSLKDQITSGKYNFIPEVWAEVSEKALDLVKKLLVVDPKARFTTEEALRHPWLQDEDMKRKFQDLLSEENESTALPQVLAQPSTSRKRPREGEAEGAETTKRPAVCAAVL

Turning to `Nc1ncnc2c1ncn2[C@@H]1O[C@H](COP(=O)(O)OP(=O)(O)OP(=O)(O)O)[C@@H](O)[C@H]1O` [ATP], the “radiometric kinase assay, SDS-PAGE” value in assay [1] is “human and mouse Chk2 were able to efficiently phosphorylate Cdc25 and histone H1 control substrates”; in assay [2] it was “human and mouse Chk2 were able to efficiently phosphorylate Cdc25 and histone H1 control substrates”; in assay [3], “The Chk1 proteins from Drosophila and humans phosphorylated MCM2-7 with similar efficiency”; in assay [4], “Drosophila Chk1 phosphorylated, on average, close to one residue per MCM2-7 complex”.
